Drawing on PubChem BioAssay (NCI), this text covers TGI and GI50 for nine compounds.

Among the test systems are A549 NSCLC; CCRF-CEM leukemia; M14 melanoma; SNB-19 CNS; ACHN renal; HCC-2998 colon; IGROV1 ovarian; OVCAR-3 ovarian; NCI-H522 lung; KM12 colon.
Common to all, as to assay: inhibition of tumour cell growth, NCI panel, 48 h

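Grown in 96-well plates, cells were treated for 48 hours with each compound at five concentrations. Insufficient inhibition: endpoint recorded as highest concentration tested. At the GI50, growth is halved. The concentration for full growth arrest is given as TGI.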

With `CCOC(=O)C(=O)Nc1cccc(C)c1C`, the TGI in the assay with A549 NSCLC, with CCRF-CEM leukemia, with M14 melanoma, with SNB-19 CNS, in the assay on ACHN renal and in the assay with HCC-2998 colon was over 100 µM in each case. For the same compound, the TGI with IGROV1 ovarian, in the assay with OVCAR-3 ovarian, in the assay with NCI-H522 lung and with KM12 colon was over 100 µM in each case.
Consider `Cc1nc(N(CCO)CCO)c2sc(=S)n(-c3ccccc3)c2n1`, for which the TGI in the assay on A549 NSCLC, in the assay on CCRF-CEM leukemia, in the assay with SNB-19 CNS, in the assay with ACHN renal, in the assay on HCC-2998 colon and in the assay on IGROV1 ovarian was over 100 µM each time. Also, the TGI in the assay with OVCAR-3 ovarian, in the assay on NCI-H522 lung and in the assay with KM12 colon was over 100 µM each time.
Consider `COC(=O)C1=C(O)C(C(=O)OC)[C@@]2(O)[C@@H](C(=O)OC)CC[C@@H]1[C@@H]2C(=O)OC` (stereo partly drawn), for which the TGI in the assay on CCRF-CEM leukemia was over 100 µM; in the assay on M14 melanoma it was 62.6 µM; in the assay with SNB-19 CNS, over 100 µM; in the assay with ACHN renal it was over 100 µM; in the assay on HCC-2998 colon, 32.2 µM; with OVCAR-3 ovarian, 58.8 µM. Also, the TGI worked out at 52.4 µM with NCI-H522 lung and 66 µM with KM12 colon.
As to `BrC1=CN2C[n+]3cc(Br)c4ccccc4c3N=C2c2ccccc21`, the TGI in the assay on A549 NSCLC is over 100 µM; in the assay on CCRF-CEM leukemia, 34.4 µM; in the assay on M14 melanoma, 18.4 µM; in the assay with SNB-19 CNS it was 32.4 µM; in the assay on ACHN renal it was 34.7 µM; in the assay with IGROV1 ovarian, 32.1 µM. Besides, the TGI in the assay with OVCAR-3 ovarian worked out at 8.86 µM; with NCI-H522 lung, 32.2 µM; in the assay on KM12 colon, 15.9 µM.
For the compound `COc1cc(C2S/C(=C/c3ccccc3)C(=O)N2c2ccccc2Cl)cc(OC)c1OC` (stereo not drawn), the TGI was over 100 µM in the assay with A549 NSCLC; 60.5 µM with M14 melanoma; over 100 µM with SNB-19 CNS; over 100 µM with ACHN renal; over 100 µM with HCC-2998 colon; 39.2 µM in the assay with NCI-H522 lung. The compound further had a TGI in the assay with KM12 colon of over 100 µM.
Turning to `CN(CCO)/N=N/c1nc[nH]c1C(N)=O`, the TGI in the assay with A549 NSCLC, with CCRF-CEM leukemia, with M14 melanoma, with SNB-19 CNS, with ACHN renal and in the assay on HCC-2998 colon was over 100 µM in each case. Moreover, the TGI in the assay on IGROV1 ovarian, with OVCAR-3 ovarian, with NCI-H522 lung and in the assay with KM12 colon was over 100 µM throughout.
For `C/C([O-])=C(/c1nc(-c2ccc([N+](=O)[O-])o2)no1)[n+]1cc(C)ccc1C`, the TGI is 30.8 µM in the assay on A549 NSCLC; over 100 µM in the assay with CCRF-CEM leukemia; 41.5 µM in the assay on SNB-19 CNS; 25.8 µM in the assay with HCC-2998 colon; over 81.6 µM with IGROV1 ovarian; 37.7 µM with OVCAR-3 ovarian. For the same compound, the TGI is 14.4 µM in the assay on NCI-H522 lung and 25.4 µM with KM12 colon.
Turning to `Cc1ccc(S(=O)(=O)Nc2cc(Sc3ccccc3)c(O)c3ccccc23)cc1`, the GI50 in the assay with A549 NSCLC was 12.3 µM; in the assay on CCRF-CEM leukemia, 2.4 µM; in the assay on M14 melanoma, 6.49 µM; with ACHN renal, 2.8 µM; in the assay with HCC-2998 colon, 18.4 µM; in the assay on IGROV1 ovarian, 3.5 µM. Moreover, the values for the GI50 with OVCAR-3 ovarian, in the assay on NCI-H522 lung and with KM12 colon were 2.85 µM, 13.1 µM and 6.01 µM, respectively. Moreover, the TGI in the assay on A549 NSCLC stood at 28.5 µM; with CCRF-CEM leukemia it was 16.6 µM; in the assay on M14 melanoma, 19.9 µM; with ACHN renal, 10.4 µM; in the assay on HCC-2998 colon, 35.9 µM; with IGROV1 ovarian, 10.4 µM. Besides, the values for the TGI in the assay on OVCAR-3 ovarian, in the assay on NCI-H522 lung and in the assay with KM12 colon were 8.24 µM, 27.6 µM and 18.9 µM, respectively.
As to `COc1cc(Cc2ccc3c(c2C#N)N(C)c2ccccc2S3)cc(OC)c1OC`, the TGI with A549 NSCLC, in the assay with CCRF-CEM leukemia, in the assay on M14 melanoma, in the assay with SNB-19 CNS, in the assay on ACHN renal and in the assay with IGROV1 ovarian was over 100 µM in each case. Besides, the TGI in the assay on OVCAR-3 ovarian, in the assay with NCI-H522 lung and with KM12 colon was over 100 µM throughout.
